Reference: patent US11084829B2, “Ubiquitin-specific-processing protease 7 (USP7) modulators and uses thereof” (RAPT THERAPEUTICS, INC., priority 2018, dated 2021)
Read-outs that look alike come from different tables or passages of the source. Values belong to the compound of their own block, whether it stands above or below them.

How the values were obtained:
CHP-134 = assay: Cell viability (CellTiter-Glo), CHP-134; assay type: cell-based; conditions: Homo sapiens; CHP-134, neuroblastoma, MYCN amplified, p53 wild-type
Experimental: (§1) CHP-134 was purchased from Sigma Aldrich, MOLM-13 was purchased from AddexBio, and NB-1 was purchased from Sekisui XenoTech. All other cell lines were purchased from American Type Culture Collection. For all cell lines, identity was confirmed by short tandem repeat profiling and culturing was performed in recommended growth medium. For studies evaluating cellular effects of compound treatment, 250 to 2,000 cells in 40 μl of recommended medium were seeded per well in 384-well plates (Corning 3764). DMSO-solubilized compounds were added in duplicate in a two-fold dilution series using a D300e Digital Dispenser (Hewlett-Packard). Following a 5-day incubation, cell viability was measured using CellTiter-Glo (Promega) following the manufacturer's instructions. Luminescence was measured using a CLARIOstar plate reader (BMG LABTECH) and normalized to that of DMSO-treated cells. IC50 values were determined by non-linear regression using a 4-parameter fit in Prism (GraphPad Software). Inhibitor profiling of the 430-cell line panel was conducted and analyzed similarly.
(§2) USP7 has been reported to stabilize MYCN (also referred to as MYCN proto-oncogene, a gene that is a member of the MYC family which is over-expressed in a variety of tumors). Since MYCN amplification is an established driver mutation in neuroblastoma, the effect of USP7 inhibition on a panel of p53 wild-type, MYCN- or MYC-amplified neuroblastoma cell lines was tested. The USP7 inhibitors of Examples 31 and 124 reduced viability of all three MYCN-amplified and two MYC-amplified neuroblastoma cell lines tested as shown in Table 4. Idasanutlin was used as a positive control, and as expected these cell lines were also sensitive to this compound.

EOL-1 = assay: Cell viability (CellTiter-Glo), EOL-1; assay type: cell-based; conditions: Homo sapiens, EOL1; EOL-1, AML, p53 wild-type
Experimental: as §1
(§3) USP7 inhibition by the compounds of Examples 31 and 124 reduced the viability of several p53-wild type blood cancer cell lines, including M07e, OCI-AML5 and MOLM13, in vitro as shown in the following Table 3. Idasanutlin was used as a positive control, and as expected these cell lines were also sensitive to this compound.

M07e = assay: Cell viability (CellTiter-Glo), M07e; assay type: cell-based; conditions: M-07e, AML, p53 wild-type
Experimental: as §1, §3

LA-N-2 = assay: Cell viability (CellTiter-Glo), LA-N-2; assay type: cell-based; conditions: LA-N-2, neuroblastoma, MYCN-amplified, p53-mutant
Experimental: as §1
(§4) In addition to the many p53 wild-type cell lines in the cell line panel that were sensitive to USP7 inhibition, a subset of p53 mutant cell lines that were inhibited by our USP7 inhibitors were identified and are shown in Table 5.

MOLM13 = assay: Cell viability (CellTiter-Glo), MOLM13; assay type: cell-based; conditions: Homo sapiens, MOLM-13; MOLM13, AML, p53 wild-type
Experimental: as §1, §3

HCC1937 = assay: Cell viability (CellTiter-Glo), HCC1937; assay type: cell-based; conditions: Homo sapiens; HCC1937, breast, triple-negative, BRCA1 mutant, p53-mutant
Experimental: as §1, §4

MM.1S = assay: Cell viability (CellTiter-Glo), MM.1S; assay type: cell-based; conditions: Homo sapiens, MM1.S, p53 wild-type
Experimental: as §1, §3

SH-SY5Y = assay: Cell viability (CellTiter-Glo), SH-SY5Y; assay type: cell-based; conditions: Homo sapiens, neuroblastoma, MYC amplified, p53 wild-type
Experimental: as §1, §2

MOLP8 = assay: Cell viability (CellTiter-Glo), MOLP8; assay type: cell-based; conditions: Homo sapiens, MOLP-8; MOLP8, MM, p53 wild-type
Experimental: as §1, §3

H526 = assay: Cell viability (CellTiter-Glo), H526; assay type: cell-based; conditions: Homo sapiens, NCI-H526
Experimental: as §1, §4
The effect of pharmacological inhibition of USP7 on the viability of the p53 mutant small cell lung cancer cell line, H526 was further evaluated. […] In contrast, idasanutlin, whose inhibitory effect is dependent on a functional p53 pathway, had no effect.

OCI-AML5 = assay: Cell viability (CellTiter-Glo), OCI-AML5; assay type: cell-based; conditions: Homo sapiens, OCI-AML-5, p53 wild-type
Experimental: as §1, §3

MM.1S xenograft = MM.1S xenograft model in NOD-SCID mice; assay type: in vivo
Experimental: MM. 1S and H526 xenograft studies were conducted according to the guidelines approved by the Applicant's Institutional Animal Care and Use Committee (IACUC). MM.1S cells were inoculated in PBS into irradiated NOD/SCID mice, while H526 cells were inoculated in PBS/Matrigel (Corning) into Nu/Nu mice (Jackson Laboratories). Mice were randomized into groups when mean tumor size reached 150 mm^3 (MM.1S) or 50-100 mm^3 (H526), respectively, and drug administration by oral gavage was started on day of randomization. Tumor volumes and body weights were subsequently measured twice per week. Tumor volumes were calculated using the formula: V=0.5(A×B^2), where A and B are the long and short diameters of the tumor, respectively.
(§5) The effects of USP7 inhibition were assessed in vivo in the MM.1S xenograft model in NOD-SCID mice via daily oral dosing of the USP7 inhibitor 3-((7-(5-chloro-2-(((2S,6S)-2,6-dimethylpiperazin-1-yl)methyl)-3-methylphenyl)thieno[3,2-b]pyridin-2-yl)methyl)-3-azabicyclo[3.1.0]hexane-2,4-dione (the compound of Example 31) at 50 mg/kg and 100 mg/kg. […] However, brief dosing holidays allowed the mice to recover and dosing to continue.

[1] = Tolerability in tumor-free NOD-SCID mice; assay type: in vivo; conditions: daily oral 50 mg/kg and 100 mg/kg, preliminary experiments
Experimental: as §5

SK-N-DZ = assay: Cell viability (CellTiter-Glo), SK-N-DZ; assay type: cell-based; conditions: Homo sapiens, neuroblastoma, MYCN-amplified, p53-mutant
Experimental: as §1, §4

NB-1 = assay: Cell viability (CellTiter-Glo), NB-1; assay type: cell-based; conditions: Homo sapiens, NB1; NB-1, neuroblastoma, MYCN amplified, p53 wild-type
Experimental: as §1, §2

USP7 = USP7 (Homo sapiens, UniProt Q93009); assay: USP7 inhibitory potency (IC50); assay type: biochemical
Chain of USP7 (Q93009 whole entry): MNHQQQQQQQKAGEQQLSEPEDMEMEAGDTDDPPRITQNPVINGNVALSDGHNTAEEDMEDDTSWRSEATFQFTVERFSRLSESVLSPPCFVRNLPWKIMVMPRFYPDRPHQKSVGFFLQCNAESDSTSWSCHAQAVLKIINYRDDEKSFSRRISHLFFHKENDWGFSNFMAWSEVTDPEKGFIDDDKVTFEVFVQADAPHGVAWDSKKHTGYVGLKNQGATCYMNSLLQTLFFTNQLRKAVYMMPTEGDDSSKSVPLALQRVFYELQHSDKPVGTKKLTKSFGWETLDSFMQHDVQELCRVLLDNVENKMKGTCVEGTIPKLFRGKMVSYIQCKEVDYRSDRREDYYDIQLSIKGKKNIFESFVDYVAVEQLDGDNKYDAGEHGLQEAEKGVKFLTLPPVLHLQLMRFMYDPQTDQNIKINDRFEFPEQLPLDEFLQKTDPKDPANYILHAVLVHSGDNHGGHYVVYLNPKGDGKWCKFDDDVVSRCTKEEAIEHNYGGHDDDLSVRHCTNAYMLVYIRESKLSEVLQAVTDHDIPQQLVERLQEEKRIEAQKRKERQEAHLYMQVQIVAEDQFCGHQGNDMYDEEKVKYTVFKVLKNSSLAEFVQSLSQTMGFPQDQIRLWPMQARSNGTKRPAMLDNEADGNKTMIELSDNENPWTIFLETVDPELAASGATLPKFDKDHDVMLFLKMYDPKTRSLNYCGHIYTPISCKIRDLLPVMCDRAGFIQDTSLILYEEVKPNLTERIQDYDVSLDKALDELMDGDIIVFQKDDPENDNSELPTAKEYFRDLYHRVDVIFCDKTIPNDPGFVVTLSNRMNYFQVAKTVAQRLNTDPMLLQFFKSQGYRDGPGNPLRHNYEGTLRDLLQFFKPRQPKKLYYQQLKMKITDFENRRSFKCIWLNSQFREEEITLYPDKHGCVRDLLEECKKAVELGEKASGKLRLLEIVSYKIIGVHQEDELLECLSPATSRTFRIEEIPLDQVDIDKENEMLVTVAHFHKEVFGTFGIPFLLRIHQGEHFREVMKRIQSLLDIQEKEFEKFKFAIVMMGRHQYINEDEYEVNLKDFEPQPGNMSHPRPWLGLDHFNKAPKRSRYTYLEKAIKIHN
Experimental: Activity for compounds described herein is provided in Table 2, wherein potency levels are provided as follows: (Potency: USP7 IC50: A<0.01 μM; B=0.01-0.1 μM; C=>0.1 μM.

NCI-H929 = assay: Cell viability (CellTiter-Glo), NCI-H929; assay type: cell-based; conditions: Homo sapiens; NCI-H929, MM, p53 wild-type
Experimental: as §1, §3

Compound: Cc1cc(Cl)cc(-c2ccnc3cc(CN4C(=O)C5CC5C4=O)sc23)c1CN1[C@@H](C)CNC[C@@H]1C (stereo partly drawn) [Example 31, 3-((7-(5-chloro-2-(((2S,6S)-2,6-dimethylpiperazin-1-yl)methyl)-3-methylphenyl)thieno[3,2-b]pyridin-2-yl)methyl)-3-azabicyclo[3.1.0]hexane-2,4-dione]
CC50 (CHP-134): 500 nM | CC50 (EOL-1): 40 nM | CC50 (M07e): 100 nM | CC50 (LA-N-2): 600 nM | CC50 (MOLM13): 100 nM | CC50 (HCC1937): 100 nM | CC50 (MM.1S): 100 nM | CC50 (SH-SY5Y): 1800 nM | CC50 (MOLP8): 200 nM | CC50 (H526; H526, lung, small cell, p53-mutant, read-out: CC50): 500 nM | CC50 (H526; H526, p53 mutant small cell lung cancer, CellTiter-Glo assay, read-out: CC50 (viability of H526 in vitro)): 500 nM | CC50 (OCI-AML5): 200 nM | tumor growth (MM.1S xenograft; MM.1S xenograft, NOD-SCID mice, daily oral dosing at 50 mg/kg and 100 mg/kg, FIG. 1A): effectively inhibited MM.1S tumor growth | survival (MM.1S xenograft; MM.1S xenograft, NOD-SCID mice, daily oral dosing at 50 mg/kg and 100 mg/kg, FIG. 1B): prolonged survival in a dose-dependent manner | body weight (MM.1S xenograft; tumor-bearing NOD-SCID mice, longer-term xenograft study, daily oral 50 and 100 mg/kg, recovered with brief dosing holidays): dose-dependent body weight loss in a fraction of mice | tolerability [1]: well tolerated | CC50 (SK-N-DZ): 200 nM | CC50 (NB-1): 600 nM | IC50 (USP7): < 10 nM | CC50 (NCI-H929): 400 nM

IC50 (USP7): < 10 nM
Compound: 3-((7-(3,5-dichloro-2-(((2S,6S)-2,6-dimethylpiperazin-1-yl)methyl)phenyl)thieno[3,2-b]pyridin-2-yl)methyl)-1-methylpyrimidine-2,4(1H,3H)-dione [Example 95]

IC50 (USP7): < 10 nM
Compound: Cc1cc(Cl)cc(-c2ncnc3cc(CN4C(=O)NC(C)C4=O)sc23)c1C[C@@H]1CNCCO1 (stereo partly drawn) [Example 244, 3-((4-(5-chloro-3-methyl-2-(((R)-morpholin-2-yl)methyl)phenyl)thieno[3,2-d]pyrimidin-6-yl)methyl)-5-methylimidazolidine-2,4-dione]

IC50 (USP7): < 10 nM
Compound: Cc1cc(Cl)cc(-c2ccnc3cc(CN4C(=O)CCCC4=O)sc23)c1CN1C[C@@H](C)NC[C@@H]1C [Example 45, 1-((7-(5-chloro-2-(((2S,5R)-2,5-dimethylpiperazin-1-yl)methyl)-3-methylphenyl)thieno[3,2-b]pyridin-2-yl)methyl)piperidine-2,6-dione]

IC50 (USP7): < 10 nM
Compound: Cc1cc(Cl)cc(-c2ncnc3cc(CN4C(=O)N(C)C(C)(C)C4=O)sc23)c1C[C@@H]1CNCC(C)(C)O1 [Example 233, (R)-3-((4-(5-chloro-2-((6,6-dimethylmorpholin-2-yl)methyl)-3-methylphenyl)thieno[3,2-d]pyrimidin-6-yl)methyl)-1,5,5-trimethylimidazolidine-2,4-dione]

IC50 (USP7): < 10 nM
Compound: 3-((7-(3,5-dichloro-2-(((2S,6S)-2,6-dimethylpiperazin-1-yl)methyl)phenyl)thieno[3,2-b]pyridin-2-yl)methyl)-1-methyldihydropyrimidine-2,4(1H,3H)-dione [Example 93]

IC50 (USP7): < 10 nM
Compound: Cc1cc(Cl)cc(-c2ccnc3cc(CN4C(=O)CN(C)C4=O)sc23)c1CC1CNCC(C)(C)O1 (stereo not drawn) [Example 121, 3-((7-(5-chloro-2-((6,6-dimethylmorpholin-2-yl)methyl)-3-methylphenyl)thieno[3,2-b]pyridin-2-yl)methyl)-1-methylimidazolidine-2,4-dione]

IC50 (USP7): < 10 nM
Compound: Cc1cc(Cl)cc(-c2ccnc3cc(CN4C(=O)C5C(C4=O)C5(C)C)sc23)c1CC1CNCCO1 (stereo not drawn) [Example 103, 3-((7-(5-chloro-3-methyl-2-(morpholin-2-ylmethyl)phenyl)thieno[3,2-b]pyridin-2-yl)methyl)-6,6-dimethyl-3-azabicyclo[3.1.0]hexane-2,4-dione]

IC50 (USP7): < 10 nM
Compound: Cc1cc(Cl)cc(-c2ccnc3cc(CN4C(=O)C5CC5C4=O)sc23)c1CC1CNCC(C)(C)O1 (stereo not drawn) [Example 120, 3-((7-(5-chloro-2-((6,6-dimethylmorpholin-2-yl)methyl)-3-methylphenyl)thieno[3,2-b]pyridin-2-yl)methyl)-3-azabicyclo[3.1.0]hexane-2,4-dione]

IC50 (USP7): < 10 nM
Compound: Cc1cc(Cl)cc(-c2ccnc3c(F)c(CN4C(=O)C5CC5C4=O)sc23)c1C[C@@H]1CNCCO1 (stereo partly drawn) [Example 125, 3-((7-(5-chloro-3-methyl-2-(((R)-morpholin-2-yl)methyl)phenyl)-3-fluorothieno[3,2-b]pyridin-2-yl)methyl)-3-azabicyclo[3.1.0]hexane-2,4-dione]

IC50 (USP7): < 10 nM
Compound: Cc1cc(Cl)cc(-c2ncnc3cc(CN4C(=O)C5CC5C4=O)sc23)c1CC1CNCC2(CC2)O1 (stereo not drawn) [Example 208, 3-((4-(2-((4-oxa-7-azaspiro[2.5]octan-5-yl)methyl)-5-chloro-3-methylphenyl)thieno[3,2-d]pyrimidin-6-yl)methyl)-3-azabicyclo[3.1.0]hexane-2,4-dione]

IC50 (USP7): < 10 nM
Compound: Cc1cc(Cl)cc(-c2ncnc3cc(CN4C(=O)C5CC5C4=O)sc23)c1CC1CNCCS1 (stereo not drawn) [Example 186, 3-((4-(5-chloro-3-methyl-2-(thiomorpholin-2-ylmethyl)phenyl)thieno[3,2-d]pyrimidin-6-yl)methyl)-3-azabicyclo[3.1.0]hexane-2,4-dione]

IC50 (USP7): < 10 nM
Compound: Cc1cc(Cl)cc(-c2ccnc3cc(CN4C(=O)CCC4=O)sc23)c1C[C@@H]1CNCC(C)(C)O1 [Example 136, (R)-1-((7-(5-chloro-2-((6,6-dimethylmorpholin-2-yl)methyl)-3-methylphenyl)thieno[3,2-b]pyridin-2-yl)methyl)pyrrolidine-2,5-dione]

IC50 (USP7): < 10 nM
Compound: Cc1cc(Cl)cc(-c2ncnc3cc(CN4C(=O)CN(CCO)C4=O)sc23)c1C[C@@H]1CNCC(C)(C)O1 [Example 276, (R)-3-((4-(5-chloro-2-((6,6-dimethylmorpholin-2-yl)methyl)-3-methylphenyl)thieno[3,2-d]pyrimidin-6-yl)methyl)-1-(2-hydroxyethyl)imidazolidine-2,4-dione]
